A word on the EC50: it is the concentration at which the effect is half-maximal. A lower EC50 goes with greater potency.

In the first test the target is T1, PPARδ (Homo sapiens, UniProt Q03181).
T1 construct: fused to amino acids 147-441 of PPARδ downstream of CMV promoter; expressed in transfected cells; host or cells: HEK293 cells, transiently transfected with pFACMV-PPARδ using Fugene
T1 sequence (Q03181 147-441): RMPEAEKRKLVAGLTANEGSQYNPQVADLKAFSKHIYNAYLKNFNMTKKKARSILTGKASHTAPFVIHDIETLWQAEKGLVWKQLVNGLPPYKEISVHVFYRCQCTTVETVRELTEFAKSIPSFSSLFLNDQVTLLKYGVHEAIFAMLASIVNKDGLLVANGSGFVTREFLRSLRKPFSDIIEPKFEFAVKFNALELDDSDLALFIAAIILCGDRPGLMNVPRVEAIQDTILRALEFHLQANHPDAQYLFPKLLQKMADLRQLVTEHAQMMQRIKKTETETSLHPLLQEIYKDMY
Put plainly: Transactivation assay (PPARδ GAL4 assay) in transiently transfected HEK293 cells. The class given is cell-based. The following applies: luciferase reporter, Table 1. The protocol: Compounds were screened for their functional potency in transiently transfected HEK293 cells for their ability to activate PPAR subtypes. Cells were cultured in DMEM (Invitrogen) supplemented with 10% foetal calf serum, glutamine, penicillin and streptomycin and plated at 10 000 cells/well of a 96-well solid white plate and incubated at 37° C./5% CO2 for 24 hours. Media was removed and the cells washed with PBS. Cells were then transiently transfected using Fugene (Roche) with 50 ng pFACMV-PPARδ (plasmid encoding amino acids 1-147 of the GAL4 DNA binding domain, fused to amino acids 147-441 of PPARδ downstream of CMV promoter) and 250 ng pFR-Luc (reporter plasmid containing 5×GAL4 response elements upstream of a luciferase gene), using a ratio of 3:1 Fugene:DNA. 100 μl of this transfection mixture in DMEM (without foetal calf serum) was added to each well, and the incubation continued for a further 24 hours. The cells are then again washed with PBS prior to the addition of 100 μl reduced serum medium (OptiMEM; Invitrogen). Compounds were added (10 μl in 2% DMSO in OptiMEM) to achieve final concentrations between 0-30 μM. The cells were then returned to the incubator for a further 24 hours. 100 μl of luciferase reagent (Bright Glo, Promega) was added directly to each well, and the luminescence determined using a suitable luminometer.
To measure the selectivity of compounds, their ability to transactivate GAL4 fusions of PPARα LBD and PPARγ LBD was determined. The activity of compounds was expressed as a percentage relative to control compounds: PPARγ rosiglitazone (BRL 49653), PPARδ GW501516 (11) or PPARα KCL1999000269 (12). EC50 values were calculated by fitting of the data to a sigmoidal dose response curve.
In general terms: A reporter such as luciferase makes a cellular process visible.
With `CCc1cc(C(=O)c2ccc(OC)nc2)c(NC(=O)CC2(CC(=O)O)CCCC2)s1` [Example 56, (1-{[5-Ethyl-3-(6-methoxy-pyridine-3-carbonyl)-thiophen-2-ylcarbamoyl]-methyl}-cyclopentyl)-acetic acid], the EC50 lay within 1000 to 30000 nM.

`CCc1cc(C(=O)c2ccc(OC)cc2)c(NC(=O)C(C)SCC(=O)O)s1` (centres unmarked) [Example 72, {1-[5-Ethyl-3-(4-methoxy-benzoyl)-thiophen-2-ylcarbamoyl]-ethylsulfanyl}-acetic acid] came in with an EC50 of 100 to 1000 nM. For the compound `CCc1cc(C(=O)c2cccc(-c3ccc(OC(F)(F)F)cc3)c2)c(NC(=O)CSCC(=O)O)s1` [Example 44, {[5-Ethyl-3-(4′-trifluoromethoxy-biphenyl-3-carbonyl)-thiophen-2-ylcarbamoyl]-methylsulfanyl}-acetic acid], the EC50 is 100 to 1000 nM.

Take `CCc1cc(C(=O)c2ccc(OC)cc2)c(NC(=O)CSc2cccc(C(=O)O)c2)s1` [Example 90, 3-{[5-Ethyl-3-(4-methoxy-benzoyl)-thiophen-2-ylcarbamoyl]-methylsulfanyl}-benzoic acid]: the EC50 is 1000 to 30000 nM. Same read-out and setting: then `CCc1cc(C(=O)c2ccc(F)c(Cl)c2)c(NC(=O)CSCC(=O)O)s1` [Example 31, {[3-(3-Chloro-4-fluoro-benzoyl)-5-ethyl-thiophen-2-ylcarbamoyl]-methylsulfanyl}-acetic acid], with 100 to 1000 nM; and `CCc1cc(C(=O)c2ccccc2)c(NC(=O)CC2(CC(=O)O)CCCC2)s1` [Example 17, {1-[(3-Benzoyl-5-ethyl-thiophen-2-ylcarbamoyl)-methyl]-cyclopentyl}-acetic acid], with 1000 to 30000 nM.

The test is the same for the next values; noted with them: luciferase reporter, Table 2.
`CCc1cc(C(=O)c2ccc(OC(F)(F)F)cc2)c(NC(=O)c2ccc(NCC(=O)O)cc2)s1` [Example 115, {4-[5-Ethyl-3-(4-trifluoromethoxy-benzoyl)-thiophen-2-ylcarbamoyl]-phenylamino}-acetic acid] registered a half-maximal effective concentration (EC50) of 100 to 1000 nM. Same read-out and setting: under `CCc1cc(C(=O)c2cc3ccccc3n2C)c(NC(=O)CSCC(=O)O)s1` [Example 149, {[5-Ethyl-3-(1-methyl-1H-indole-2-carbonyl)-thiophen-2-ylcarbamoyl]-methylsulfanyl}-acetic acid] stands 1000 to 30000 nM. The same measure, in the same setting: under `CCc1cc(C(=O)c2ccc(OC)cc2)c(NC(=O)CSC(C)C(=O)O)s1` (centres unmarked) [Example 111, 2-{[5-Ethyl-3-(4-methoxy-benzoyl)-thiophen-2-ylcarbamoyl]-methylsulfanyl}-propionic acid] stands 100 to 1000 nM. On the same count and under the same terms, then `CCCc1cc(C(=O)c2ccc(OC(F)(F)F)cc2)c(NC(=O)CSCC(=O)O)s1` [Example 132, {[5-Propyl-3-(4-trifluoromethoxy-benzoyl)-thiophen-2-ylcarbamoyl]-methylsulfanyl}-acetic acid], with below 100 nM; and `CCc1cc(C(=O)c2ccc(OC(F)(F)F)cc2)c(NC(=O)CN[C@@](C)(CC)C(=O)O)s1` [Example 192, (S)-2-({[5-Ethyl-3-(4-trifluoromethoxy-benzoyl)-thiophen-2-ylcarbamoyl]-methyl}-amino)-2-methyl-butyric acid], with 100 to 1000 nM. Take `CCc1cc(C(=O)c2ccc(OC(F)(F)F)cc2)c(NC(=O)c2ccc(CCC(=O)O)cc2)s1` [Example 116, 3-{4-[5-Ethyl-3-(4-trifluoromethoxy-benzoyl)-thiophen-2-ylcarbamoyl]-phenyl}-propionic acid]: the EC50 was 100 to 1000 nM.

The compound `CCc1cc(C(=O)c2ccc(OC(F)(F)F)cc2)c(NC(=O)C(C)N2[C@@H](C(=O)O)CC[C@@H]2C)s1` (stereo partly drawn) [Example 186, (2R,5S)-1-{1-[5-Ethyl-3-(4-trifluoromethoxy-benzoyl)-thiophen-2-ylcarbamoyl]-ethyl}-5-methyl-pyrrolidine-2-carboxylic acid] displayed an EC50 below 100 nM. On to `CCc1cc(C(=O)c2nc3ccc(Cl)cc3s2)c(NC(=O)CSCC(=O)O)s1` [Example 154, {[3-(6-Chloro-benzothiazole-2-carbonyl)-5-ethyl-thiophen-2-ylcarbamoyl]-methylsulfanyl}-acetic acid], for which the EC50 is 100 to 1000 nM.
